AC50 data for 37 molecules are collected here from ChEMBL document CHEMBL5291721, “A preclinical secondary pharmacology resource illuminates target-adverse drug reaction associations of marketed drugs” (Nat Commun, 2023).

Test [1] addresses T1, Neuropeptide Y receptor type 1 (Homo sapiens, UniProt P25929).
T1 sequence (P25929 whole entry): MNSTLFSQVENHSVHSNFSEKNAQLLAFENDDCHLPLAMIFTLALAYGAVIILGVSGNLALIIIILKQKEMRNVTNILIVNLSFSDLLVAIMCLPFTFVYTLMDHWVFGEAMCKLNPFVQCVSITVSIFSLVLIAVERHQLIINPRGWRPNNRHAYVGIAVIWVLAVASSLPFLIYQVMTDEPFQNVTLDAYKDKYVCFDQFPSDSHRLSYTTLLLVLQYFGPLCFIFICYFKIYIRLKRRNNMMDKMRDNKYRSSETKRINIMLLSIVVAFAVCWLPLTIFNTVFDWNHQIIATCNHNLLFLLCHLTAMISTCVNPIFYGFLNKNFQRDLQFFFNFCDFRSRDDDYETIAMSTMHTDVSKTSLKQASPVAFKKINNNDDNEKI

Test [2] addresses T2, Muscarinic acetylcholine receptor M2 (Homo sapiens, UniProt P08172).
T2 sequence (P08172 whole entry): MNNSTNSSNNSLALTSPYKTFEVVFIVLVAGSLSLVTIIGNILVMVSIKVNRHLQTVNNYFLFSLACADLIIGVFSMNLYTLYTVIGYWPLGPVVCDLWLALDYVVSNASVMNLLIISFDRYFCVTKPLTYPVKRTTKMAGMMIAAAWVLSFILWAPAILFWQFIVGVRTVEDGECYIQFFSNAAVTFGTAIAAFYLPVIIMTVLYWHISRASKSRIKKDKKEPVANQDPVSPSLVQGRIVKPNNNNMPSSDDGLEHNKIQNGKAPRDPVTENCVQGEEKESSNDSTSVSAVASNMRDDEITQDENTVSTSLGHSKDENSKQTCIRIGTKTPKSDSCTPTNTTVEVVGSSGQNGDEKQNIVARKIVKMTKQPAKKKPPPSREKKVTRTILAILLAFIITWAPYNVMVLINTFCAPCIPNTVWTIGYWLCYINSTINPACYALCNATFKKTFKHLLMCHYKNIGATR
It is filed as functional, cell-based.

Test [3] addresses T3, Alpha-1A adrenergic receptor (Homo sapiens, UniProt P35348).
T3 sequence (P35348 whole entry): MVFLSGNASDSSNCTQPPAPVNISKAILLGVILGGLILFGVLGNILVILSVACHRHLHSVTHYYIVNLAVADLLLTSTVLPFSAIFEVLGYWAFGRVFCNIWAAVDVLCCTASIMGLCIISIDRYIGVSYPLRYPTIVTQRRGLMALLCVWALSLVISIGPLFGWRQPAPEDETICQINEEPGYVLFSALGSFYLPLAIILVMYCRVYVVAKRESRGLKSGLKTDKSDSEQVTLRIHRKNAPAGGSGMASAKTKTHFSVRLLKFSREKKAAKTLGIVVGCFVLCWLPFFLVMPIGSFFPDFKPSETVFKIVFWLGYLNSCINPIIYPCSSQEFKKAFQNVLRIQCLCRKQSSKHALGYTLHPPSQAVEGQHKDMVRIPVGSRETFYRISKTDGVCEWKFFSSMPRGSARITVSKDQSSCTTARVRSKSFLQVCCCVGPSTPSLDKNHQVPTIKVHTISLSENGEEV
It is filed as functional, cell-based.

The target of the next test is D(3) dopamine receptor (Homo sapiens, UniProt P35462).
The target of test [4] is T3, Alpha-1A adrenergic receptor. In kind it is functional, cell-based. The source holds these as a separate data set.
Note: assay procedure not described here.

Sequence of D(3) dopamine receptor (P35462 whole entry): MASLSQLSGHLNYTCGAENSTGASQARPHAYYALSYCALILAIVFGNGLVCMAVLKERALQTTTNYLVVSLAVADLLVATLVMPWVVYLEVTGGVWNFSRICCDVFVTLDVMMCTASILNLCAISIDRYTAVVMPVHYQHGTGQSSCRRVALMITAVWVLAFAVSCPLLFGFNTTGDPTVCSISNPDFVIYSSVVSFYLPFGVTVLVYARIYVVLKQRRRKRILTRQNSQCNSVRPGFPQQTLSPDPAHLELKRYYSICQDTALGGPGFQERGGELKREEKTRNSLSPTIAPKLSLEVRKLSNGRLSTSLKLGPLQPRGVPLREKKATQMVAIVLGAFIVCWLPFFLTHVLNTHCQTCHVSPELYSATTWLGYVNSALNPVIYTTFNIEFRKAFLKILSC

Take `C[N+]1(C)CCC(=C(c2ccccc2)c2ccccc2)CC1`: in test [1], the half-maximal activity concentration (AC50) – broadly, the concentration giving half of the maximal activity seen – is over 30 µM.

For `C[N+](C)(C)CCOP(=O)([O-])OC[C@H](O)CO`, the concentration at half-maximal activity (AC50) in test [2], in test [1] and in test [3] was over 30 µM each time.

For `CN(C)Cc1nnc2n1-c1ccc(Cl)cc1C(c1ccccc1)=NC2` [ADINAZOLAM], the concentration at half-maximal activity (AC50) in test [2] and in test [1] was over 10 µM in each case.

`CN(C)C/C=C/C(=O)Nc1cc2c(Nc3ccc(F)c(Cl)c3)ncnc2cc1O[C@H]1CCOC1` [AFATINIB]: the half-maximal activity concentration (AC50) in test [2], in test [1] and in test [3] was over 30 µM throughout.

Regarding `Cc1ccccc1-n1c(CF)nc2ccc(N)cc2c1=O` [AFLOQUALONE], the half-maximal activity concentration (AC50) was over 10 µM in test [2] and over 30 µM in test [1].

In the case of `CCC1(c2ccc(N)cc2)CCC(=O)NC1=O` (stereo not given) [AMINOGLUTETHIMIDE], the concentration at half-maximal activity (AC50) in test [2], in test [1] and in test [3] was over 30 µM each time.

`CC1=C(C(=O)OC(C)C)C(c2cccc([N+](=O)[O-])c2)C(C(=O)OC2CN(C(c3ccccc3)c3ccccc3)C2)=C(N)N1` (stereo not given) [AZELNIDIPINE]: the half-maximal activity concentration (AC50) in test [2], in test [1] and in test [3] was over 30 µM in each case.

For the molecule `CC(Cc1cccc(C(F)(F)F)c1)NCCOC(=O)c1ccccc1` (stereo not given) [BENFLUOREX], the AC50 in test [1] and in test [3] was over 30 µM each time.

Regarding `CCOC(=O)c1ccc(N)cc1` [BENZOCAINE], the AC50 in test [2] and in test [1] was over 10 µM throughout.

Take `CC(C)(Oc1ccc(CCNC(=O)c2ccc(Cl)cc2)cc1)C(=O)O` [BEZAFIBRATE]: the AC50 in test [2] was over 10 µM; in test [1], over 10 µM; in test [3] it was over 30 µM.

For `CC(O)(CS(=O)(=O)c1ccc(F)cc1)C(=O)Nc1ccc(C#N)c(C(F)(F)F)c1` (stereo not given) [BICALUTAMIDE], the AC50 in test [2] is over 10 µM; in test [1] it was over 30 µM; on D(3) dopamine receptor, over 30 µM; in test [4], over 10 µM; in test [3], over 30 µM.

Take `CC(=O)O[C@]1(C(C)=O)CC[C@H]2[C@@H]3C=C(Cl)C4=CC(=O)[C@@H]5C[C@@H]5[C@]4(C)[C@H]3CC[C@@]21C` [CYPROTERONE ACETATE]: the concentration at half-maximal activity (AC50) (in test [1]; on D(3) dopamine receptor; in test [4]) was over 30 µM in each case.

`C/C=C(/C(=C/C)c1ccc(O)cc1)c1ccc(O)cc1` [DIENESTROL]: the AC50 in test [2] and in test [1] was over 10 µM in each case.

In the case of `CN[C@]1(c2ccccc2Cl)CCCCC1=O` [ESKETAMINE], the AC50 in test [2], in test [1] and in test [3] was over 30 µM in each case.

As to `CC(O)(P(=O)(O)O)P(=O)(O)O` [ETIDRONIC ACID], the concentration at half-maximal activity (AC50) (at D(3) dopamine receptor; in test [4]) was over 30 µM each time.

As to `COc1ccc([C@@H]2CC(=O)c3c(O)cc(O)cc3O2)cc1O` [HESPERETIN], the AC50 in test [2] and in test [1] was over 10 µM each time.

For `CNCCc1ccc(OC(=O)C(C)C)c(OC(=O)C(C)C)c1` [IBOPAMINE], the AC50 in test [2] is over 30 µM; in test [1], over 30 µM; in test [3], 0.131 µM.

With `CN(C)CCCN1c2ccccc2CCc2ccccc21` [IMIPRAMINE], the values for the concentration at half-maximal activity (AC50) in test [2], in test [1] and in test [3] were over 10 µM, over 30 µM and over 30 µM, respectively.

As to `CCOC(=O)C1=C(C)NC(C)=C(C(=O)OCC)C1c1ccccc1/C=C/C(=O)OC(C)(C)C` [LACIDIPINE], the AC50 in test [2], in test [1] and in test [3] was over 30 µM each time.

`CCC[C@@H]1C[C@@H](C(=O)N[C@@H]([C@H]2O[C@H](SC)[C@H](O)[C@@H](O)[C@H]2O)[C@@H](C)O)N(C)C1` [LINCOMYCIN]: the AC50 in test [2] is over 10 µM; in test [1], over 10 µM; in test [3], over 30 µM.

On to `COC(=O)C1=C(C)NC(C)=C(C(=O)OCCN2CCN(C(c3ccccc3)c3ccccc3)CC2)C1c1cccc([N+](=O)[O-])c1` (stereo not given) [MANIDIPINE 6300], for which the AC50 in test [2], in test [1] and in test [3] was over 30 µM throughout.

Turning to `C=C1c2cccc(O)c2C(=O)C2=C(O)[C@]3(O)C(=O)C(C(N)=O)=C(O)[C@@H](N(C)C)[C@@H]3[C@@H](O)[C@H]12` [METHACYCLINE], the AC50 in test [2] was over 10 µM; in test [1], over 30 µM.

`CN(Cc1cnc2nc(N)nc(N)c2n1)c1ccc(C(=O)N[C@@H](CCC(=O)O)C(=O)O)cc1` [METHOTREXATE]: the AC50 in test [2] was over 10 µM; in test [1], over 30 µM; in test [3], over 30 µM.

On to `Cc1ccccc1N1C(=O)c2cc(S(N)(=O)=O)c(Cl)cc2NC1C` (stereo not given) [METOLAZONE], for which the half-maximal activity concentration (AC50) in test [2] and in test [1] was over 10 µM each time.

Turning to `O=C(O)c1cccnc1Nc1cccc(C(F)(F)F)c1` [NIFLUMIC ACID], the concentration at half-maximal activity (AC50) in test [2] and in test [1] was over 10 µM throughout.

Take `O=C1c2cccc3c2[C@H](CCC3)CN1[C@@H]1CN2CCC1CC2` [PALONOSETRON]: the concentration at half-maximal activity (AC50) in test [2], in test [1] and in test [3] was over 30 µM each time.

For `OC[C@H]1O[C@@H](n2cnc3c2NC=NC[C@H]3O)C[C@@H]1O` [PENTOSTATIN], the concentration at half-maximal activity (AC50) in test [2], in test [1] and in test [3] was over 30 µM throughout.

For the molecule `O=C1c2ccccc2C(=O)C1c1ccccc1` [PHENINDIONE], the AC50 in test [2] is over 10 µM; in test [1] it was over 10 µM; in test [3] it was over 30 µM.

As for `Cc1cccc(C)c1NC(=O)CC12CCCN1CCC2` [PILSICAINIDE], the concentration at half-maximal activity (AC50) in test [2], in test [1] and in test [3] was over 30 µM in each case.

With `CC(C)c1cccc(C(C)C)c1O` [PROPOFOL], the AC50 in test [2] and in test [3] was over 30 µM in each case.

For the molecule `CN[C@@H](C)[C@@H](O)c1ccccc1` [PSEUDOEPHEDRINE], the AC50 in test [2] was over 10 µM; in test [1] it was over 30 µM.

`CCCN1CC(NS(=O)(=O)N(CC)CC)CC2Cc3c(O)cccc3CC21` (stereo not given) [QUINAGOLIDE]: the concentration at half-maximal activity (AC50) in test [2] was over 30 µM; in test [1], over 30 µM; in test [3], 0.45 µM.

Take `COC(=O)[C@H]1[C@H]2C[C@@H]3c4[nH]c5cc(OC)ccc5c4CCN3C[C@H]2C[C@@H](OC(=O)c2cc(OC)c(OC)c(OC)c2)[C@@H]1OC` [RESERPINE]: the AC50 in test [2] is over 10 µM; in test [1] it was over 10 µM; on D(3) dopamine receptor, over 30 µM; in test [4] it was over 30 µM.

For `C[C@]12CCC(=O)C[C@@H]1CC[C@@H]1[C@@H]2CC[C@]2(C)[C@@H](O)CC[C@@H]12` [STANOLONE], the AC50 in test [2], in test [1] and in test [3] was over 30 µM throughout.

As to `O=C1OC(OC(=O)c2cccnc2Nc2cccc(C(F)(F)F)c2)c2ccccc21` (stereo not given) [TALNIFLUMATE], the AC50 in test [2], in test [1] and in test [3] was over 30 µM throughout.

Take `C[C@]12C=CC(=O)C=C1CC[C@@H]1[C@@H]2CC[C@]2(C)OC(=O)CC[C@@H]12` [TESTOLACTONE]: the AC50 in test [2] was over 10 µM; in test [1], over 10 µM; in test [3], over 30 µM.

Consider `CCOC(=O)c1c(CSc2ccccc2)n(C)c2cc(Br)c(O)c(CN(C)C)c12` [UMIFENOVIR], for which the AC50 in test [2], in test [1] and in test [3] was over 30 µM each time.
